Measured values from US11053219B2, “Substituted pyridines as TYK2 inhibitors” (FronThera U.S. Pharmaceuticals LLC, priority 2018, dated 2021).
pIC50, pKd: −log10 of the molar value. Like-named read-outs stand apart in the source and are kept apart here.

Assays:
TYK2 (JH2 domain) = TYK2 (JH2 domain) (Homo sapiens (Human), UniProt P29597); experiment: TYK2 JH2 domain binding assay (DiscoverX KINOMEscan); details: 11-point 3-fold dilution, duplicate
[1] = tested on: IL12-induced p-STAT4 in human PBMC; experiment: IL-12 induced pSTAT4 in human PBMC; assay type: cell-based; details: read-out: p-STAT4 IC50
[2] = tested on: INFα induced pSTAT5 in human PBMC; experiment: INFα induced pSTAT5 in human PBMC; assay type: cell-based; details: read-out: p-STAT5 IC50

TYK2 (JH2 domain), sequence (P29597 589-875): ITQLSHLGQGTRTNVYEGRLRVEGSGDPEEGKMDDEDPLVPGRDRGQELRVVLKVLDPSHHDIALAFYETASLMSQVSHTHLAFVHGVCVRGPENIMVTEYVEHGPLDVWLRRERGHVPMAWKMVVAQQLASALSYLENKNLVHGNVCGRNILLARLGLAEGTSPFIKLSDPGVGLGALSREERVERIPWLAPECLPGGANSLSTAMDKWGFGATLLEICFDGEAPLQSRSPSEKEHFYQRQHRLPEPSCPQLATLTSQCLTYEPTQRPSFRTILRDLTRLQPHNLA

Row | Structure (SMILES) | pKd (TYK2 (JH2 domain)) | pIC50 ([1]; human PBMC, IL-12 10 ng/ml) | pIC50 ([2]; human PBMC, INFα 5000 units/ml) | pIC50 ([2]; Homo sapiens, PBMC) | pIC50 ([1]; Homo sapiens, PBMC)
1 | [2H]C([2H])([2H])NC(=O)c1nnc(N2CCN(C3CCC3)C2=O)cc1Nc1cccc(-c2ncn(C([2H])([2H])[2H])n2)c1OC [Example 22, 6-(3-cyclobutyl-2-oxo-imidazolidin-1-yl)-4-[2-methoxy-3-[1-(trideuteriomethyl)-1,2,4-triazol-3-yl]anilino]-N-(trideuteriomethyl)pyridazine-3-carboxamide] | ≥ 9.00 | > 7.00 |  |  | 
2 | COc1c(Nc2cc(NC(=O)C3CC3)ncc2C(=O)C2CC2)cccc1-c1nnn(C)n1 [Example 51] | ≥ 9.00 | > 7.00 | > 7.00 |  | 
3 | COc1c(Nc2cc(NC(=O)C3CC3)ncc2C(=O)C2CC2)cccc1-c1ncn(C)n1 [Example 27] |  |  |  | > 7.00 | > 7.00
4 | COc1c(Nc2cc(NC(=O)N3CCC3)ncc2C(=O)C2CC2)cccc1-c1ncn(C)n1 [Example 33] | ≥ 9.00 |  |  |  | > 7.00
5 | [2H]C([2H])([2H])NC(=O)c1nnc(NC(=O)N2CCC2)cc1Nc1cccc(-c2ncn(C)n2)c1OC [Example 50] | ≥ 9.00 | > 7.00 |  |  | 
6 | COc1c(Nc2cc(Nc3ccncn3)ncc2C(=O)C2CC2)cccc1-c1ncn(C)n1 [Example 52] | ≥ 9.00 | > 7.00 |  |  | 
7 | [2H]C([2H])([2H])NC(=O)c1nnc(N2CCN(C3CCC3)C2=O)cc1Nc1cccc(-c2ncn(C)n2)c1OC([2H])([2H])[2H] [Example 20, 6-(3-cyclobutyl-2-oxo-imidazolidin-1-yl)-4-[3-(1-methyl-1,2,4-triazol-3-yl)-2-(trideuteriomethoxy)anilino]-N-(trideuteriomethyl)pyridazine-3-carboxamide] | ≥ 9.00 | > 7.00 |  |  | 
8 | [2H]C([2H])([2H])NC(=O)c1nnc(N2CCN(C(C)C)C2=O)cc1Nc1cccc(-c2ncn(C)n2)c1OC [Example 6, 6-(3-isopropyl-2-oxo-imidazolidin-1-yl)-4-[2-methoxy-3-(1-methyl-1,2,4-triazol-3-yl)anilino]-N-(trideuteriomethyl)pyridazine-3-carboxamide] | ≥ 9.00 |  | > 7.00 |  | > 7.00
9 | [2H]C([2H])([2H])NC(=O)c1nnc(NC(=O)N2CCCC2)cc1Nc1cccc(-c2ncn(C)n2)c1OC [Example 29] | ≥ 9.00 |  |  |  | > 7.00
10 | [2H]C([2H])([2H])NC(=O)c1nnc(N2CCN(C(C)C)C2=O)cc1Nc1cccc(-c2ncn(C)n2)c1OC([2H])([2H])[2H] [Example 14, 6-(3-isopropyl-2-oxo-imidazolidin-1-yl)-4-[3-(1-methyl-1,2,4-triazol-3-yl)-2-(trideuteriomethoxy)anilino]-N-(trideuteriomethyl)pyridazine-3-carboxamide] | ≥ 9.00 | > 7.00 | > 7.00 |  | 
11 | [2H]C([2H])([2H])NC(=O)c1nnc(NC(=O)N2CC3(CCC3)C2)cc1Nc1cccc(-c2ncn(C)n2)c1OC [Example 32] | ≥ 9.00 |  |  |  | > 7.00
12 | [2H]C([2H])([2H])NC(=O)c1nnc(N2CCN(C3CCC3)C2=O)cc1Nc1cccc(-c2ncn(C)n2)c1OC [Example 11, 6-(3-cyclobutyl-2-oxo-imidazolidin-1-yl)-4-[2-methoxy-3-(1-methyl-1,2,4-triazol-3-yl)anilino]-N-(trideuteriomethyl)pyridazine-3-carboxamide] | ≥ 9.00 | > 7.00 | > 7.00 |  | 
13 | COc1c(Nc2cc(Nc3ccccn3)ncc2C(=O)C2CC2)cccc1-c1ncn(C)n1 [Example 37] | ≥ 9.00 | > 7.00 | > 7.00 |  | 
14 | [2H]C([2H])([2H])NC(=O)c1nnc(N2CCN(C(C([2H])([2H])[2H])C([2H])([2H])[2H])C2=O)cc1Nc1cccc(-c2ncn(C([2H])([2H])[2H])n2)c1OC [Example 21, 6-(3-isopropyl-2-oxo-imidazolidin-1-yl)-4-[2-methoxy-3-(1-methyl-1,2,4-triazol-3-yl)anilino]-N-(trideuteriomethyl)pyridazine-3-carboxamide] | ≥ 9.00 | > 7.00 |  |  | 
15 | CNC(=O)c1nnc(NC(=O)N2CCC2)cc1Nc1cccc(-c2ncn(C)n2)c1OC [Example 30] | ≥ 9.00 | > 7.00 |  |  | 
16 | COc1c(Nc2cc(NC(=O)C(C)C)ncc2C(=O)C2CC2)cccc1-c1ncn(C)n1 [Example 36] | ≥ 9.00 | > 7.00 |  |  | 
17 | [2H]C([2H])([2H])n1cnc(-c2cccc(Nc3cc(NC(=O)C4CC4)ncc3C(=O)C3CC3)c2OC)n1 [Example 54] |  | > 7.00 | > 7.00 |  | 
18 | [2H]C([2H])([2H])NC(=O)c1nnc(N2CCN(C3CC(C)C3)C2=O)cc1Nc1cccc(-c2ncn(C)n2)c1OC (stereo not drawn) [Example 100] | ≥ 9.00 | > 7.00 |  |  | 
19 | [2H]C([2H])([2H])NC(=O)c1nnc(N2CCN(C(C)C)C2=O)cc1Nc1cccc(-c2ncn(C([2H])([2H])[2H])n2)c1OC [Example 15, 6-(3-isopropyl-2-oxo-imidazolidin-1-yl)-4-[2-methoxy-3-[1-(trideuteriomethyl)-1,2,4-triazol-3-yl]anilino]-N-(trideuteriomethyl)pyridazine-3-carboxamide] | ≥ 9.00 | > 7.00 | > 7.00 |  | 

Second part, led by results:

Row | pKd (TYK2 (JH2 domain)) | Structure (SMILES) | pIC50 ([1]; human PBMC, IL-12 10 ng/ml) | pIC50 ([2]; human PBMC, INFα 5000 units/ml) | pIC50 ([2]; Homo sapiens, PBMC) | pIC50 ([1]; Homo sapiens, PBMC)
20 | ≥ 9.00 | [2H]C([2H])([2H])NC(=O)c1nnc(N2CCN(C3(C)CC3)C2=O)cc1Nc1cccc(-c2ncn(C)n2)c1OC [Example 88] | > 7.00 |  |  | 
21 | ≥ 9.00 | [2H]C([2H])([2H])NC(=O)c1nnc(N2CCN(CCC)C2=O)cc1Nc1cccc(-c2ncn(C)n2)c1OC [Example 99] | > 7.00 |  |  | 
22 | ≥ 9.00 | [2H]C([2H])([2H])NC(=O)c1nnc(NC(=O)N2CC(F)(F)C2)cc1Nc1cccc(-c2ncn(C)n2)c1OC [Example 47] | > 7.00 |  |  | 
23 | ≥ 9.00 | [2H]C([2H])([2H])NC(=O)c1nnc(N2CCN(C3CCCOC3)C2=O)cc1Nc1cccc(-c2ncn(C)n2)c1OC (stereo not drawn) [Example 98] | > 7.00 |  |  | 
24 | ≥ 9.00 | [2H]C([2H])([2H])NC(=O)c1nnc(N2CCN(CC3CCC3)C2=O)cc1Nc1cccc(-c2ncn(C)n2)c1OC [Example 96] | > 7.00 |  |  | 
25 | ≥ 9.00 | [2H]C([2H])([2H])NC(=O)c1nnc(N2CCN(C3CCC(F)(F)CC3)C2=O)cc1Nc1cccc(-c2ncn(C)n2)c1OC [Example 94] | > 7.00 |  |  | 
26 | ≥ 9.00 | [2H]C([2H])([2H])NC(=O)c1nnc(N2CCN(CC(C)C)C2=O)cc1Nc1cccc(-c2ncn(C)n2)c1OC [Example 17, 6-(3-isobutyl-2-oxo-imidazolidin-1-yl)-4-[2-methoxy-3-(1-methyl-1,2,4-triazol-3-yl)anilino]-N-(trideuteriomethyl)pyridazine-3-carboxamide] | > 7.00 |  |  | 
27 | ≥ 9.00 | [2H]C([2H])([2H])NC(=O)c1nnc(N2CCN(C3(C)COC3)C2=O)cc1Nc1cccc(-c2ncn(C)n2)c1OC [Example 16, 4-[2-methoxy-3-(1-methyl-1,2,4-triazol-3-yl)anilino]-6-[3-(3-methyloxetan-3-yl)-2-oxo-imidazolidin-1-yl]-N-(trideuteriomethyl)pyridazine-3-carboxamide] | > 7.00 | > 7.00 |  | 
28 | ≥ 9.00 | [2H]C([2H])([2H])NC(=O)c1nnc(NC(=O)N2CC(C)C2)cc1Nc1cccc(-c2ncn(C)n2)c1OC [Example 49] | > 7.00 | > 7.00 |  | 
29 | ≥ 9.00 | [2H]C([2H])([2H])NC(=O)c1nnc(N2CCN(C(C)CO)C2=O)cc1Nc1cccc(-c2ncn(C)n2)c1OC (stereo not drawn) [Example 85] | 6.00 to 7.00 |  |  | 
30 | ≥ 9.00 | [2H]C([2H])([2H])NC(=O)c1nnc(N2CCN(C3C[C@@H]3F)C2=O)cc1Nc1cccc(-c2ncn(C)n2)c1OC (stereo partly drawn) [Example 78] | > 7.00 |  |  | 
31 | ≥ 9.00 | [2H]C([2H])([2H])NC(=O)c1nnc(N2CCN(C34CC(C3)C4)C2=O)cc1Nc1cccc(-c2ncn(C)n2)c1OC [Example 19, 6-[3-(3-bicyclo[1.1.1]pentanyl)-2-oxo-imidazolidin-1-yl]-4-[2-methoxy-3-(1-methyl-1,2,4-triazol-3-yl)anilino]-N-(trideuteriomethyl)pyridazine-3-carboxamide] | > 7.00 |  |  | 
32 | ≥ 9.00 | [2H]C([2H])([2H])NC(=O)c1nnc(N2CCN(C(C)(C)C)C2=O)cc1Nc1cccc(-c2ncn(C)n2)c1OC [Example 89] | > 7.00 | > 7.00 |  | 
33 | ≥ 9.00 | [2H]C([2H])([2H])NC(=O)c1nnc(N2CCN(CCCC)C2=O)cc1Nc1cccc(-c2ncn(C)n2)c1OC [Example 91] | > 7.00 |  |  | 
34 | ≥ 9.00 | [2H]C([2H])([2H])NC(=O)c1cnc(N2CCN(C(C)C)C2=O)cc1Nc1cccc(-c2ncn(C)n2)c1OC [Example 48] | > 7.00 |  |  | 
35 | ≥ 9.00 | [2H]C([2H])([2H])NC(=O)c1nnc(N2CCN(C3(C#N)CC3)C2=O)cc1Nc1cccc(-c2ncn(C)n2)c1OC [Example 95] | > 7.00 |  |  | 
36 | ≥ 9.00 | [2H]C([2H])([2H])NC(=O)c1nnc(N2CCN(C3CC(F)(F)C3)C2=O)cc1Nc1cccc(-c2ncn(C)n2)c1OC [Example 10, 6-[3-(3,3-difluorocyclobutyl)-2-oxo-imidazolidin-1-yl]-4-[2-methoxy-3-(1-methyl-1,2,4-triazol-3-yl)anilino]-N-(trideuteriomethyl)pyridazine-3-carboxamide] | > 7.00 | > 7.00 |  | 
37 | ≥ 9.00 | [2H]C([2H])([2H])NC(=O)c1nnc(N2CCN(C3CCCC3)C2=O)cc1Nc1cccc(-c2ncn(C)n2)c1OC [Example 18, 6-(3-cyclopentyl-2-oxo-imidazolidin-1-yl)-4-[2-methoxy-3-(1-methyl-1,2,4-triazol-3-yl)anilino]-N-(trideuteriomethyl)pyridazine-3-carboxamide] | > 7.00 |  |  | 
